Key:
[1] = system: CAR-NK cells; assay: Post-thaw viability of CAR-NK cells by flow cytometry (Annexin V / cell death marker); type: cell-based, human
Experimental: (§1) CAR-NK cells were isolated, pre-activated, expanded, and treated with Dasatinib for 24, 48, or 72 hours prior to cryopreservation as described in Example 1 (or not treated with Dasatinib as control). Immediately prior to cryopreservation, CAR-NK cells were washed to remove the deactivating agent.

[2] = system: CAR-NK cells; assay: Post-thaw CAR expression of CAR-NK cells by flow cytometry; type: cell-based, human
Experimental: as §1

[3] = system: SKOV3 cells and/or UMRC3 cells; assay: xCELLigence impedance assay, thawed iC9/CD27 CAR/IL-15-NK cells; type: cell-based; conditions: pre-cryopreservation treatment at 1 micromolar; E:T 2:1; vs no pre-treatment
Experimental: The ovarian cancer cell line (SKOV3) (FIG. 16A) and renal cell carcinoma cell line (UMRC3) (FIG. 16B), were grown in 96 well RTCA E-Plates overnight.

[4] = system: A375 cells and/or Saos-2 cells; assay: xCELLigence impedance assay, thawed NYESO-TCR-NK cells; conditions: pre-cryopreservation treatment at 1 micromolar; E:T 2:1; vs no pre-treatment
Experimental: As shown in FIGS. 17A-17C, addition of various tyrosine kinase inhibitors prior to freezing enhanced the antitumor cytotoxicity of TCR-NK cells post-thaw against solid cancer, as determined by xCELLigence impedance assays. The melanoma cell line (A375) (FIG. 17A) and osteosarcoma cell line (Saos-2) (FIG. 17B), were grown in 96 well RTCA E-Plates overnight. The next day, frozen NYESO targeting TCR-NK cells that were not treated or were treated pre-cryopreservation with a tyrosine kinase inhibitor (Dasatinib, Bosutinib, Nilotinib, or Saracatinib; at a final concentration of 1 micromolar) were thawed and added at 2:1 effector to target (E:T) ratio. The cancer cell growth was measured continuously over time (X axis) by the xCELLigence device and represented as normalized cell index (Y axis).

[5] = system: U266 cells; assay: Chromium release assay, thawed NYESO-TCR-NK cells; type: cell-based; conditions: pre-cryopreservation treatment; E:T 2:1, 1:1, 0.5:1, 0.25:1; vs no pre-treatment
Experimental: After four hours, chromium release was measured, which corresponded to cancer cell death.

[6] = 24 h treatment prior to cryopreservation
[7] = 48 h treatment prior to cryopreservation

SMILES | living cell percentage [1, 6] | living cell percentage [1, 7] | living cell percentage ([1]; 72 h treatment prior to cryopreservation) | CAR Mean Fluorescence Intensity (MFI) [2, 6] | percentage of cells that are CAR positive [2, 6] | CAR Mean Fluorescence Intensity (MFI) [2, 7] | percentage of cells that are CAR positive [2, 7] | cytotoxicity of thawed CAR-NK cells (normalized cell index) [3] | cytotoxicity of thawed TCR-NK cells (normalized cell index) [4] | cytotoxicity of thawed TCR-NK cells (chromium release after four hours) [5]
Cc1nc(Nc2ncc(C(=O)Nc3c(C)cccc3Cl)s2)cc(N2CCN(CCO)CC2)n1 [Dasatinib] | 61.7% | 68.8% | 70.9% | 7987 | 64.9% | 4620 | 55.4% | increased cytotoxicity | increased cytotoxicity | increased cytotoxicity
CN1CCN(CCOc2cc(OC3CCOCC3)c3c(Nc4c(Cl)ccc5c4OCO5)ncnc3c2)CC1 [Saracatinib] |  |  |  |  |  |  |  | increased cytotoxicity |  | 
COc1cc(Nc2c(C#N)cnc3cc(OCCCN4CCN(C)CC4)c(OC)cc23)c(Cl)cc1Cl [Bosutinib] |  |  |  |  |  |  |  |  | increased cytotoxicity | 
Cc1cn(-c2cc(NC(=O)c3ccc(C)c(Nc4nccc(-c5cccnc5)n4)c3)cc(C(F)(F)F)c2)cn1 [Nilotinib] |  |  |  |  |  |  |  | increased cytotoxicity | increased cytotoxicity | 
